Laboratory results published in PubChem BioAssay (NCI).
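Compound exposure: 48 hours, 5 concentrations, 96-well plates. At the TGI there is no net growth.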

Legend:
Experiment in all cases: NCI anticancer screen, dose series, 48 h
[1] = system: 786-0 renal
[2] = system: A498 renal
[3] = system: A549 NSCLC
[4] = system: ACHN renal
[5] = system: BT-549 breast
[6] = system: CAKI-1 renal
[7] = system: CCRF-CEM leukemia
[8] = system: COLO 205 colon
[9] = system: DU-145 prostate
[10] = system: EKVX NSCLC
[11] = system: HCC-2998 colon
[12] = system: HCT-116 colon
[13] = system: HCT-15 colon
[14] = system: HL-60(TB) leukemia
[15] = system: HOP-62 NSCLC
[16] = system: HOP-92 NSCLC
[17] = system: HS 578T breast
[18] = system: HT29 colon
[19] = system: IGROV1 ovarian
[20] = system: K-562 leukemia
[21] = system: KM12 colon
[22] = system: LOX IMVI melanoma
[23] = system: M14 melanoma
[24] = system: MALME-3M melanoma
[25] = system: MCF7 breast
[26] = system: MDA-MB-231 breast
[27] = system: MDA-MB-435
[28] = system: MDA-N
[29] = system: MOLT-4 leukemia
[30] = system: NCI-H226 lung
[31] = system: NCI-H23 lung
[32] = system: NCI-H460 lung
[33] = system: NCI-H522 lung
[34] = system: NCI/ADR-RES ovarian
[35] = system: OVCAR-3 ovarian
[36] = system: OVCAR-4 ovarian
[37] = system: OVCAR-5 ovarian
[38] = system: OVCAR-8 ovarian
[39] = system: PC-3 prostate
[40] = system: RPMI-8226 leukemia
[41] = system: RXF 393 renal
[42] = system: SF-268 CNS
[43] = system: SF-295 CNS
[44] = system: SF-539 CNS
[45] = system: SK-MEL-2 melanoma
[46] = system: SK-MEL-28 melanoma
[47] = system: SK-MEL-5 melanoma
[48] = system: SK-OV-3 ovarian
[49] = system: SN12C renal
[50] = system: SNB-19 CNS
[51] = system: SNB-75 CNS
[52] = system: SR leukemia
[53] = system: SW-620 colon
[54] = system: T-47D breast
[55] = system: TK-10 renal
[56] = system: U251 CNS
[57] = system: UACC-257 melanoma
[58] = system: UACC-62 melanoma
[59] = system: UO-31 renal

Cc1nn2c(=O)c([N+](=O)[O-])c(/C=C/c3ccc(F)cc3)nc2s1
TGI [1]: 20.9 µM
TGI [2]: 35.6 µM
TGI [3]: 24.3 µM
TGI [4]: 20.6 µM
TGI [5]: 18.8 µM
TGI [6]: 27.9 µM
TGI [7]: 23.5 µM
TGI [8]: 16.7 µM
TGI [9]: > 31.6 µM
TGI [10]: 22.5 µM
TGI [11]: 16.4 µM
TGI [12]: 15.1 µM
TGI [13]: 16.5 µM
TGI [14]: 18.1 µM
TGI [15]: 22.9 µM
TGI [16]: 26.3 µM
TGI [17]: 28.6 µM
TGI [18]: 16.5 µM
TGI [19]: 22.6 µM
TGI [20]: > 31.6 µM
TGI [21]: 16.3 µM
TGI [22]: 9.19 µM
TGI [23]: 16.4 µM
TGI [24]: 16.7 µM
TGI [25]: 13.3 µM
TGI [26]: 26.8 µM
TGI [27]: 10.5 µM
TGI [28]: 15.8 µM
TGI [29]: 28.6 µM
TGI [30]: 19 µM
TGI [31]: 23.5 µM
TGI [32]: 22.9 µM
TGI [33]: 18 µM
TGI [34]: 25.1 µM
TGI [35]: 16.6 µM
TGI [36]: 19.5 µM
TGI [37]: 18 µM
TGI [38]: 16 µM
TGI [39]: 22 µM
TGI [40]: 19.7 µM
TGI [41]: 10.7 µM
TGI [42]: 26.2 µM
TGI [43]: 22.8 µM
TGI [44]: 17.9 µM
TGI [45]: 19.3 µM
TGI [46]: 19.7 µM
TGI [47]: 15.8 µM
TGI [48]: > 31.6 µM
TGI [49]: 21.2 µM
TGI [50]: 23.2 µM
TGI [51]: 31.3 µM
TGI [52]: 16.5 µM
TGI [53]: 19.3 µM
TGI [54]: 19.3 µM
TGI [55]: 20.7 µM
TGI [56]: 14.6 µM
TGI [57]: 22.3 µM
TGI [58]: 17.5 µM
TGI [59]: 16.2 µM

NCCCN(CCCCN(CCCN)CCCc1ccccc1)CCCc1ccccc1
TGI [1]: 2.91 µM
TGI [2]: 32.8 µM
TGI [3]: 9.49 µM
TGI [4]: 9.24 µM
TGI [5]: 10.1 µM
TGI [6]: 4.94 µM
TGI [7]: 7.83 µM
TGI [8]: 3.18 µM
TGI [9]: 23.8 µM
TGI [10]: 12.6 µM
TGI [11]: 2.99 µM
TGI [12]: 3.02 µM
TGI [13]: 4.24 µM
TGI [14]: 7.44 µM
TGI [15]: 25.4 µM
TGI [16]: 24.1 µM
TGI [17]: 4.66 µM
TGI [18]: 4.32 µM
TGI [19]: 8.88 µM
TGI [20]: 3.57 µM
TGI [21]: 6.43 µM
TGI [22]: 6.38 µM
TGI [23]: 3.57 µM
TGI [25]: 3.56 µM
TGI [26]: 4.39 µM
TGI [27]: 3.27 µM
TGI [28]: 3.23 µM
TGI [29]: 5.21 µM
TGI [30]: 38.8 µM
TGI [31]: 17.4 µM
TGI [32]: 2.72 µM
TGI [33]: 7.17 µM
TGI [34]: 43.1 µM
TGI [35]: 3.34 µM
TGI [36]: 17.1 µM
TGI [37]: 24.9 µM
TGI [38]: 27 µM
TGI [39]: 12.3 µM
TGI [40]: 6.15 µM
TGI [41]: 5.64 µM
TGI [42]: 8.32 µM
TGI [43]: 3.16 µM
TGI [44]: 3.55 µM
TGI [45]: 3.25 µM
TGI [46]: 2.98 µM
TGI [47]: 3.36 µM
TGI [48]: 14.1 µM
TGI [49]: 16.9 µM
TGI [50]: 6.62 µM
TGI [51]: 5.04 µM
TGI [52]: 7.19 µM
TGI [53]: 10.6 µM
TGI [54]: 23.5 µM
TGI [55]: 25.9 µM
TGI [56]: 4.19 µM
TGI [57]: 3.45 µM
TGI [58]: 3.28 µM
TGI [59]: 5.66 µM

O=C(O)CN1C(=O)c2ccc(NC(=O)C(=O)O)cc2S1(=O)=O
TGI [1]: > 100 µM
TGI [2]: > 100 µM
TGI [3]: > 100 µM
TGI [4]: > 100 µM
TGI [5]: > 100 µM
TGI [6]: > 100 µM
TGI [7]: > 100 µM
TGI [8]: > 100 µM
TGI [9]: > 100 µM
TGI [10]: > 100 µM
TGI [11]: > 100 µM
TGI [12]: > 100 µM
TGI [13]: > 100 µM
TGI [14]: > 100 µM
TGI [15]: > 100 µM
TGI [16]: > 100 µM
TGI [17]: > 100 µM
TGI [19]: > 100 µM
TGI [20]: > 100 µM
TGI [21]: > 100 µM
TGI [22]: > 100 µM
TGI [23]: > 100 µM
TGI [24]: > 100 µM
TGI [25]: > 100 µM
TGI [26]: > 100 µM
TGI [27]: > 100 µM
TGI [28]: > 100 µM
TGI [29]: > 100 µM
TGI [30]: > 100 µM
TGI [31]: > 100 µM
TGI [32]: > 100 µM
TGI [33]: > 100 µM
TGI [34]: > 100 µM
TGI [36]: > 100 µM
TGI [37]: > 100 µM
TGI [39]: > 100 µM
TGI [40]: > 100 µM
TGI [41]: > 100 µM
TGI [42]: > 100 µM
TGI [43]: > 100 µM
TGI [45]: > 100 µM
TGI [46]: > 100 µM
TGI [47]: > 100 µM
TGI [48]: > 100 µM
TGI [49]: > 100 µM
TGI [50]: > 100 µM
TGI [52]: > 100 µM
TGI [53]: > 100 µM
TGI [54]: > 100 µM
TGI [55]: > 100 µM
TGI [56]: > 100 µM
TGI [57]: > 100 µM
TGI [58]: > 100 µM
TGI [59]: > 100 µM

O=c1c(-c2nc3ccccc3c3ccccc3c2=O)nc2ccccc2c2ccccc12
TGI [1]: > 100 µM
TGI [2]: > 100 µM
TGI [3]: > 100 µM
TGI [4]: > 100 µM
TGI [5]: > 100 µM
TGI [6]: > 100 µM
TGI [7]: 86.8 µM
TGI [8]: > 100 µM
TGI [9]: > 100 µM
TGI [10]: > 100 µM
TGI [11]: 68 µM
TGI [12]: 71.6 µM
TGI [13]: > 100 µM
TGI [14]: 58.5 µM
TGI [15]: > 100 µM
TGI [16]: > 100 µM
TGI [17]: > 100 µM
TGI [18]: > 100 µM
TGI [19]: > 100 µM
TGI [20]: > 100 µM
TGI [21]: > 100 µM
TGI [22]: > 100 µM
TGI [23]: > 100 µM
TGI [24]: > 100 µM
TGI [25]: > 100 µM
TGI [26]: > 100 µM
TGI [27]: 89 µM
TGI [28]: 69 µM
TGI [29]: > 100 µM
TGI [30]: > 100 µM
TGI [31]: > 100 µM
TGI [32]: > 100 µM
TGI [33]: > 100 µM
TGI [34]: > 100 µM
TGI [35]: 97.3 µM
TGI [36]: > 100 µM
TGI [37]: > 100 µM
TGI [38]: > 100 µM
TGI [39]: 89.6 µM
TGI [40]: > 100 µM
TGI [41]: 82.9 µM
TGI [42]: > 100 µM
TGI [43]: > 100 µM
TGI [44]: 55.3 µM
TGI [45]: > 100 µM
TGI [46]: > 100 µM
TGI [47]: 86.2 µM
TGI [48]: > 100 µM
TGI [49]: 99.1 µM
TGI [50]: > 100 µM
TGI [51]: 94.9 µM
TGI [52]: 61 µM
TGI [53]: > 100 µM
TGI [54]: > 100 µM
TGI [55]: > 100 µM
TGI [56]: 60.3 µM
TGI [57]: > 100 µM
TGI [58]: > 100 µM
TGI [59]: > 100 µM
